What was measured:
[1] = tested on: HCT116 human colorectal carcinoma cells; test: CellTiter-Glo Luminescent Cell Viability Assay; format: cell-based; conditions: HCT-116, 72 h, 3 days
Summary of the method: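 HCT116 cells were exposed for 3 days to compound in triplicate at final concentrations of 5 to 0.0002 […] (1:3 dilutions). Viability was read by CellTiter-Glo luminescence, and IC50 values were calculated.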

[2] = tested on: HCT116 colorectal carcinoma cells; test: In vivo efficacy study, HCT116 xenograft; set-up: species or system Athymic Nude mice; conditions: for Body Weight (g) Mean ± SEM / Tumor Volume (mm^3) Mean ± SEM / Tumor Weight (g) Mean ± SD: HCT116 xenograft mice; for body weight versus vehicle group / reduction of tumor volume and tumor weight: HCT116 mouse model, compound 3 100 mg/kg BID, compound 136 30 mg/kg BID, 12 days; for reduction of tumor volume and tumor weight: versus vehicle
Text: Compound 3 were formulated with 10% absolute ethanol, 30% PEG400, 60% water containing 0.5% methyl cellulose and 0.5% Tween80®. 2×10^6 HCT116 colorectal carcinoma cells (ATCC® CCL-247) in PBS and Matrigel (1:1 in volume) were inoculated subcutaneously in the right flank of Athymic Nude mice at 6-7 weeks of age for tumor development. When the xenografts reached about 150 mm^3 in size, the tumor bearing mice were randomly grouped into six groups (n=6) and treated by oral gavage with vehicle (10% absolute ethanol, 30% PEG400, 60% water containing 0.5% methyl cellulose and 0.5% Tween80®, BID) or compound 3 at 100 mg/kg BID for 12 days. Tumor sizes were measured twice weekly in two dimensions using a caliper and the volume were expressed in mm^3 using the formula V=0.5×a×b^2 wherein a and b were the long and short diameters of the tumor, respectively. The efficacy study for compound 136 was carried out in the same manner as that of compound 3 except compound 136 was dosed at 30 mg/kg BID for 12 days.

[3] = biological target: T1, DDB1DB/DCAF15 and RBM39 R1R2 complex (Homo sapiens, UniProt Q14498+Q66K64); test: DCAF15 RBM39 Complex Formation Assay (FRET); format: binding; conditions: FRET ratio Em 665/Em 615, incubated overnight at 4° C.
T1 construct: Amino acids 150 to 331 of RBM39 were cloned into pGEX4T3; GST (from vector pGEX4T3); TEV cleavage site (N); made in house; host or cells: DDB1DB/His-DCAF15: baculovirus/Sf9 co-expression; RBM39 R1R2: E. coli (pGEX4T3)
Summary of the method: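 Ternary complex formation read by TR-FRET (Em 665/615, excitation 340 nm) after overnight incubation at 4° C of 20 nM baculovirus DDB1DB/His-DCAF15 and 50 nM E. coli RBM39 RRM1-RRM2 FLAG fragment with 14-point, 3-fold compound dilutions from 1 μM; EC50 from 4-parameter fit.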

[4] = cited from earlier work; for treatment-induced myelosuppressive effect: clinical dosing, indisulam 700 mg/m^2 IV every 3 weeks, E7820 100 mg q.d. oral; for oral bioavailability: in vivo
[5] = cited from earlier work
[6] = 30 mg/kg BID oral gavage for 12 days
[7] = 100 mg/kg BID oral gavage for 12 days

T1 sequence (Q66K64 whole entry, the tested form may be a part): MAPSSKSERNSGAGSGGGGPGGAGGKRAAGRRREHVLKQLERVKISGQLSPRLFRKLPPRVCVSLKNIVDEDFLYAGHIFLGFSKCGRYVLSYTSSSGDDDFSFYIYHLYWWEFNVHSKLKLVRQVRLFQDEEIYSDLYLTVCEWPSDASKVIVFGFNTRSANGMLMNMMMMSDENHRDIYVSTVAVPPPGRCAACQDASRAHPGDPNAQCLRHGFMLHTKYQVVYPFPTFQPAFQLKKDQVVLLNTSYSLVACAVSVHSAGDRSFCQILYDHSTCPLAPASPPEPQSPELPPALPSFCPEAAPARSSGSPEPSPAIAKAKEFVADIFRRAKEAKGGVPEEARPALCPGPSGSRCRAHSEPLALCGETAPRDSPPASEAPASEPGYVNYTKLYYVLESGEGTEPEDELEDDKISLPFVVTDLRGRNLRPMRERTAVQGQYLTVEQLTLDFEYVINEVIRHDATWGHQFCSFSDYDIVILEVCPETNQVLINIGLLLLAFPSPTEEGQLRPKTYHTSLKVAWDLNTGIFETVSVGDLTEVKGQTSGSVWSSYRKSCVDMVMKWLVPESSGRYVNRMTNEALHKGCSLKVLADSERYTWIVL
T1 sequence (Q14498 150-331): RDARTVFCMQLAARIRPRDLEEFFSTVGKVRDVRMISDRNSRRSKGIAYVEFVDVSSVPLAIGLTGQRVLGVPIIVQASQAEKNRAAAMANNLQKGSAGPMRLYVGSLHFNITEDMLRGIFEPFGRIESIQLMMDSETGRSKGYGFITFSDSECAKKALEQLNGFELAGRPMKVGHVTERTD
T1 sequence (Q16531 with tags, fused parts or gaps DEL396-708 partner): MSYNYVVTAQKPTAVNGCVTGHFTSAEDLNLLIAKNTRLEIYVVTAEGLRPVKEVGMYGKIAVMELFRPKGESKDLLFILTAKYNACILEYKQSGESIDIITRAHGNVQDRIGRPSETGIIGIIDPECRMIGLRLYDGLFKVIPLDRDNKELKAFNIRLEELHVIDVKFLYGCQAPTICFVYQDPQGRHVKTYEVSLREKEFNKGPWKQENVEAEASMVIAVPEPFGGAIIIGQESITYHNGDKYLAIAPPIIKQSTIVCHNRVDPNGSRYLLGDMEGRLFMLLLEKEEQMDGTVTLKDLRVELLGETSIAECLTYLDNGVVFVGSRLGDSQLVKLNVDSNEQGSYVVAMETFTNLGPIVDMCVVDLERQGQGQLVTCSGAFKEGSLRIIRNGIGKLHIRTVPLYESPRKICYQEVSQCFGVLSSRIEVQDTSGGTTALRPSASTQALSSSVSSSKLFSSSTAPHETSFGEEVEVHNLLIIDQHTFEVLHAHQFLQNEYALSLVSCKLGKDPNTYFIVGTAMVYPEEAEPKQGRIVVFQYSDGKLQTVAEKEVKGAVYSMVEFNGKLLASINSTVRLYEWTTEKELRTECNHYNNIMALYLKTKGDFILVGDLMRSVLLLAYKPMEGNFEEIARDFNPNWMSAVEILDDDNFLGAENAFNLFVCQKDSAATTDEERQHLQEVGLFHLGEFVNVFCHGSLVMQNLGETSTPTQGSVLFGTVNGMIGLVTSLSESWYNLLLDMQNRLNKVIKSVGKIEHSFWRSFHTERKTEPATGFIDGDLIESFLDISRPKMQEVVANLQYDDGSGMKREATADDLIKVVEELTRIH

Structure (SMILES) | EC50 [1] [nM] | IC50 [3] [nM] | also measured
CC(C)(O)Cn1cc(S(=O)(=O)Nc2ccc(Cl)c3c(C#N)c[nH]c23)cn1 [Compound 136, N-(4-chloro-3-cyano-1H-indol-7-yl)-1-(2-hydroxy-2-methyl-propyl)pyrazole-4-sulfonamide] | 250 to 1000 | < 250 | Body Weight (g) Mean ± SEM [2, 6]: 21.4 ± 0.14 g; Tumor Volume (mm^3) Mean ± SEM [2, 6]: 175.7 ± 12.3 mm^3; Tumor Weight (g) Mean ± SD [2, 6]: .083 ± 0.06 g; body weight versus vehicle group [2]: no significant difference; reduction of tumor volume and tumor weight [2]: statistically significant reduction
Cc1ccc(NS(=O)(=O)c2cccc(C#N)c2)c2[nH]cc(C#N)c12 [Compound E7820, E7820] | – | – | treatment-induced myelosuppressive effect [4]: same myelosuppressive effects; oral bioavailability [4]: good oral bioavailability; measured drug concentration available (free drug) ([5]; according to the free drug principle): less than 1%; plasma protein binding [5]: greater than 99%
Cn1cc(S(=O)(=O)Nc2ccc(C(F)(F)F)c3c(C#N)c[nH]c23)cn1 [Compound 105, N-[3-cyano-4-(trifluoromethyl)-1H-indol-7-yl]-1-methyl-pyrazole-4-sulfonamide] | 250 to 1000 | < 250 | –
N#Cc1c[nH]c2c(NS(=O)(=O)c3cnn(C(F)F)c3N)ccc(F)c12 [Compound 285, 5-amino-N-(3-cyano-4-fluoro-1H-indol-7-yl)-1-(difluoromethyl)pyrazole-4-sulfonamide] | 250 to 1000 | < 250 | –
[2H]C([2H])([2H])n1cc(S(=O)(=O)Nc2ccc(C)c3c(C#N)c[nH]c23)cn1 [Compound 110, N-(3-Cyano-4-methyl-1H-indol-7-yl)-1-(trideuteriomethyl)pyrazole-4-sulfonamide] | 250 to 1000 | < 250 | –
C[C@@H](CO)n1cc(S(=O)(=O)Nc2ccc(F)c3c(C#N)c[nH]c23)cn1 [Compound 267, N-(3-cyano-4-fluoro-1H-indol-7-yl)-1-[(1S)-2-hydroxy-1-methyl-ethyl]pyrazole-4-sulfonamide] | 250 to 1000 | < 250 | –
Cc1ccc(NS(=O)(=O)c2cnn(CCCO)c2)c2[nH]cc(C#N)c12 [Compound 210, N-(3-cyano-4-methyl-1H-indol-7-yl)-1-(3-hydroxypropyl)pyrazole-4-sulfonamide] | 250 to 1000 | < 250 | –
Cc1ccc(NS(=O)(=O)c2cnn(CC(C)(C)S(C)(=O)=O)c2)c2[nH]cc(C#N)c12 [Compound 84, N-(3-cyano-4-methyl-1H-indol-7-yl)-1-(2-methyl-2-methylsulfonyl-propyl)pyrazole-4-sulfonamide] | > 1000 | < 250 | –
N#Cc1c[nH]c2c(NS(=O)(=O)c3cnn(CC(F)F)c3N)ccc(Cl)c12 [Compound 278, 5-amino-N-(4-chloro-3-cyano-1H-indol-7-yl)-1-(2,2-difluoroethyl)pyrazole-4-sulfonamide] | < 250 | < 250 | –
COCCn1cc(S(=O)(=O)Nc2cccc3c(Cl)c[nH]c23)cn1 [Compound 49, N-(3-chloro-1H-indol-7-yl)-1-(2-methoxyethyl)pyrazole-4-sulfonamide] | 250 to 1000 | < 250 | –
N#CCC1(n2cc(S(=O)(=O)Nc3ccc(Cl)c4c(C#N)c[nH]c34)cn2)COC1 [Compound 158, N-(4-chloro-3-cyano-1H-indol-7-yl)-1-[3-(cyanomethyl)oxetan-3-yl]pyrazole-4-sulfonamide] | 250 to 1000 | < 250 | –
N#Cc1c[nH]c2c(NS(=O)(=O)c3cnn([C@@H](CO)CF)c3)ccc(F)c12 [Compound 247] | > 1000 | < 250 | –
Cn1cc(S(=O)(=O)Nc2ccc(Cl)c3c(C#N)c[nH]c23)cn1 [Compound 82, N-(4-chloro-3-cyano-1H-indol-7-yl)-1-methyl-pyrazole-4-sulfonamide] | < 250 | < 250 | –
NS(=O)(=O)c1ccc(S(=O)(=O)Nc2cccc3c(Cl)c[nH]c23)cc1 [Indisulam, indisulam] | – | – | treatment-induced myelosuppressive effect [4]: treatment-induced myelosuppressive effect; oral bioavailability [4]: poor oral bioavailability
Cc1ccc(NS(=O)(=O)c2cnn(CCC(C)O)c2)c2[nH]cc(C#N)c12 (centres unmarked) [Compound 270, N-(3-cyano-4-methyl-1H-indol-7-yl)-1-(3-hydroxybutyl)pyrazole-4-sulfonamide] | 250 to 1000 | < 250 | –
Cc1ccc(NS(=O)(=O)c2cn(C)nc2F)c2[nH]cc(C#N)c12 [Compound 148, N-(3-cyano-4-methyl-1H-indol-7-yl)-3-fluoro-1-methyl-pyrazole-4-sulfonamide] | 250 to 1000 | < 250 | –
Cc1ccc(NS(=O)(=O)c2cnn(C3(C)COC3)c2)c2[nH]cc(C#N)c12 [Compound 107, N-(3-cyano-4-methyl-1H-indol-7-yl)-1-(3-methyloxetan-3-yl)pyrazole-4-sulfonamide] | < 250 | < 250 | –
CC(C)(C)OC(=O)N1CC(n2cc(S(=O)(=O)Nc3cccc4c(Cl)c[nH]c34)cn2)C1 [Compound 12, tert-butyl 3-[4-[(3-chloro-1H-indol-7-yl)sulfamoyl]pyrazol-1-yl]azetidine-1-carboxylate] | 250 to 1000 | < 250 | –
NCCn1cc(S(=O)(=O)Nc2cccc3c(Cl)c[nH]c23)cn1 [Compound 34, 1-(2-aminoethyl)-N-(3-chloro-1H-indol-7-yl)pyrazole-4-sulfonamide] | > 1000 | < 250 | –
Cc1ccc(NS(=O)(=O)c2cnn(CC(F)F)c2N)c2[nH]cc(C#N)c12 [Compound 277, 5-amino-N-(3-cyano-4-methyl-1H-indol-7-yl)-1-(2,2-difluoroethyl)pyrazole-4-sulfonamide] | < 250 | < 250 | –
N#Cc1c[nH]c2c(NS(=O)(=O)c3cnn(C[C@H](N)C(F)(F)F)c3)ccc(Cl)c12 [Compound 248, 1-[(2S)-2-amino-3,3,3-trifluoro-propyl]-N-(4-chloro-3-cyano-1H-indol-7-yl)pyrazole-4-sulfonamide] | 250 to 1000 | < 250 | –
Cc1ccc(NS(=O)(=O)c2cnn(C)c2)c2[nH]cc(C#N)c12 [Compound 3, N-(3-cyano-4-methyl-1H-indol-7-yl)-1-methyl-pyrazole-4-sulfonamide] | 250 to 1000 | < 250 | Body Weight (g) Mean ± SEM [2, 7]: 22.44 ± 0.16 g; Tumor Volume (mm^3) Mean ± SEM [2, 7]: 122.9 ± 33.9 mm^3; Tumor Weight (g) Mean ± SD [2, 7]: .013 ± 0.005 g; body weight versus vehicle group [2]: no significant difference; reduction of tumor volume and tumor weight [2]: statistically significant reduction

Source: patent publication US20250368627A1, “PYRAZOLESULFONAMIDES AS ANTITUMOR AGENTS” (Peloton Therapeutics, Inc., a fully owned subsidiary of …, priority 2019, published 2025)
